Reference: patent US5270310A, “N-aminoalkyl amide inhibitors of protein kinase C” (Sphinx Pharmaceuticals Corporation, priority 1991, dated 1993)
pIC50: −log10 of the molar value. Where two headings read alike, the source gives them in different places.

Key:
[1] = biological target: protein kinase C (PKC); assay: Protein Kinase C Inhibition; format: biochemical, rat
Protocol: The protein kinase C (PKC) assay is designed to duplicate the in vivo conditions required for protein kinase C function. Therefore, pH, salt and cofactor concentrations are similar to physiologic levels. Histone H1 (lysine rich) is used in the assay as the phosphorylation acceptor protein because it is readily available and serves as a good substrate for protein kinase C. The enzyme is prepared from rat brain and is purified to apparent homogeneity as determined by a single band on silver stained SDS-polyacrylamide. Studies on the mechanism of regulation of protein kinase C by phospholipids, DAG and Ca^+2 have been hampered by the physical properties of the lipid cofactors. In the screening assay, phosphatidylserine (PS) and DAG are co-sonicated to form unilamellar and multilamellar vesicles. The concentration of lipids in the assay are suboptimal to maximize the detection potential of the assay for inhibitors. […] The assay is started with the addition of enzyme and stopped after 10 min by the addition of 25% trichloroacetic acid (TCA) and 1.0 mg/ml bovine serum albumin (BSA). The radioactive histone product is retained and washed on glass fiber filters that allow the unreacted ^32 P-ATP to pass through. The amount of phosphorylation is determined by the radioactivity measured in a scintillation counter. Controls are included in every assay to measure background activity in the absence of enzyme, activity in the absence of lipids and the maximum enzyme activity with saturating levels of the activator lipids.
Both the free base and the HCl salt were tested.

[2] = biological target: T1, protein kinase (PKA), catalytic subunit (Homo sapiens, UniProt P17612); assay: cAMP-Dependent Protein Kinase (PKA) Assay; format: biochemical; conditions: free base
T1 construct: purchased Sigma Chemical Company, St. Louis, Mo
Protocol: Compound found to be inhibitors of protein kinase C are tested for inhibitory activity against protein kinase (PKA). This enzyme, like protein kinase C, plays an important role in cell-cell communication and is activated by a second messenger, cAMP. Secondary screening against PKA is useful for ascertaining the selectivity of the compounds of the invention. The catalytic subunit of PKA (Sigma Chemical Company, St. Louis, Mo.) is mixed with buffer before addition of the inhibitor in dimethylsulfoxide (DMSO). The assay is started by the addition of 32P-ATP and the reaction is allowed to proceed for 10 min before stopping with 25% trichloroacetic acid (TCA) and 1.0 mg/ml bovine serum albumin (BSA). The phosphorylated protein is isolated by filtration and the radioactivity is counted in a beta scintillation counter.

[3] = test system: MCF-7 human breast tumor cell line; assay: Human Tumor Cell Growth Inhibition, MCF-7; format: cell-based; conditions: for pIC50: Homo sapiens, MCF7, 3H-thymidine incorporation, value outside parentheses (not salt); for inhibit growth of MCF-7 cells: result in words
Protocol: MCF-7 a human breast tumor cell line and MCF-7/ADR an adriamycin resistant line of MCF-7 cells were obtained from the National Cancer Institute, Frederick, Md. […] Human tumor cells are trypsinized (0.05% trypsin, GIBCO), counted with a hemacytometer and seeded at a concentration of 10,000 cells/well in a 96 well microtiter plate. After allowing cells to attach to the surface overnight, the culture medium is aspirated and replaced with 100 μl of fresh medium. Test agents are diluted to determine dose response at 2× final concentration and added in quadruplicate at 100 μl/well to bring the total volume of each well to 200 μl. The microtiter plate is then incubated at 37° C. 5% CO2 overnight (18-24 hrs) before ^3 H-thymidine is added at a concentration of 0.5 μCi/well in 50 μl culture medium. The plate is incubated again for 4 hrs under the same conditions as above. Supernatant is then aspirated and 50 μl trypsin (0.05%, GIBCO) is added to each well. Cells are checked microscopically to determine detachment from surfaces, and plates are then harvested with a cell harvester (PHD, Cambridge Technology, Inc.) Filter papers corresponding to wells are placed in scintillation vials and counted to determine the amount of ^3 H-thymidine incorporated by the cells. Test agent response is compared to a positive control of cell wells with culture media only to determine the IC50. IC50 is the concentration of test compound required to inhibit fifty per cent of the incorporation of ^3 H-thymidine into proliferating cells not exposed to test agent. Uptake of ^3 H-thymidine is a standard test for measuring the metabolism of cells. Cells which are actively proliferating take up ^3 H-thymidine, whereas cells that are not proliferating take up ^3 H-thymidine at much slower rates or not at all. Test agents that inhibit the uptake of ^3 H-thymidine thus slow the growth of cells.

[4] = test system: NHEK cells (proliferating keratinocytes); assay: Human Keratinocyte Inhibition; format: cell-based; conditions: 3H-thymidine incorporation
Protocol: Proliferating keratinocytes (NHEK cells purchased from Clonetics, Inc., San Diego, Calif.) in second passage were grown in Keratinocyte Growth Medium (KGM) (Clonetics, Inc.) Cells are trypsinized (0.025% trypsin, Clonetics), counted with a hemacytometer (Scientific Products), and seeded at a concentration of 2,500 cells/well in a 96 well microtiter plate. After allowing cells to attach to the surface overnight, the culture medium is aspirated and replaced with 100 μl of fresh KGM. […] IC50 is the concentration of test compound required to inhibit fifty percent of the incorporation of ^3 H-thymidine into proliferating cells not exposed to test agent.

[5] = test system: PMA-stimulated neutrophils; assay: Neutrophil Superoxide Anion (O2^-) Release Assay; format: cell-based, human; conditions: for pIC50: Homo sapiens, Neutrophil, PMA-stimulated; for inhibit O2^- production by PMA-stimulated neutrophils: result in words
Protocol: Neutrophils are isolated form whole blood collected from human volunteers. All reagent materials are obtained from Sigma Chemical Company with the exception of isotonic saline (Travenol Laboratories, Inc., Deerfield, Ill.) and lymphocyte separation medium (Organon Teknika, Durham, N.C.).
Whole blood is drawn and mixed with sodium heparin (final conc. 10 units/ml) to prevent clotting. An equal volume of dextran (3.0%) in isotonic saline is added, mixed, and allowed to settle for 30 min to bind red blood cells (RBC). Supernatant is removed, underlayered with lymphocyte separation medium and centrifuged for 40 min at 400 xg in a centrifuge (Beckman GPR, Norcross, Ga). The pellet is alternately resuspended in 0.2% and 1.6% NaCl to lyse RBCs before washing with Hank's Balanced Salt Solution (HBSS). The washed pellet is resuspended in 10 mL HBSS and placed on ice before counting on a hemacytometer.
The neutrophil cell concentration is adjusted to 2×10^6 cells/ml with HBSS before adding 0.8 mL cells to 12×75 mm polypropylene test tubes (Fisher Scientific). Test agents are diluted to determine dose response and added at 10× final concentration at a volume of 0.1 mL/tube in duplicate. Then 10× concentrations of cytochrome C (15 mg/ml) with catalase (3000 units/ml) either alone or containing 25 ng/ml phorbol 12-myristate 13-acetate (PMA) are added at a volume of 0.1 mL/tube and incubated at 37° C. for 30 min before stopping the reaction by placing tubes on ice. Tubes are then centrifuged at 900 xg for 10 min, 0.5 mL supernatant is removed and added to 0.5 mL H2 O in a microcuvette. Optical density (OD) of cytochrome c is read in a spectrophotometer (Shimadzu) at 550 nm. The ΔOD of cytochrome c is obtained between PMA-stimulated and non-stimulated tubes, and the dose responses of the test agents are compared to the positive controls (which contain HBSS in place of test agents). PMA stimulates O2^- production which reduces cytochrome c. Reducing cytochrome c increases its absorbance, and the change in OD of cytochrome c is proportional to the amount of O2^- produced by PMA stimulation. Inhibition of the O2^- burst by test compounds of the invention is seen as a reduction in the change in optical density. Inhibition is expressed as IC50 μM and is the amount of test compound that will inhibit fifty percent of the PMA-stimulated respiratory outburst, i.e. O2^- production.

[6] = test system: MCF-7 human breast tumor cell line; assay: Human Tumor Cell Growth Inhibition, MCF-7; format: cell-based; conditions: MCF7, 3H-thymidine incorporation, value in parentheses: salt
[7] = value in parentheses: salt, read-out: NHEK IC50 (salt)
[8] = value outside parentheses (not salt), read-out: NHEK IC50
[9] = value in parentheses: salt, read-out: Neutrophil Superoxide Release IC50 (salt)
[10] = value outside parentheses (not salt), read-out: Neutrophil Superoxide Release IC50

Compound `CCCCCCCCCCCCCCCC(=O)N(C)CCN(C)C` [Compound 3] has a pIC50 ([1]; HCl salt) of 4.18 and a pIC50 ([1]; free base) of 4.40.

`CCCCCCCCCCCCCCCC(=O)N(C)CCCN(C)C` [Compound 4, N-Hexadecanoyl-N,N',N'-trimethyl-1,3-propanediamine] gave a pIC50 ([1]; HCl salt) of 4.24, a pIC50 ([1]; free base) of 3.97 and a pIC50 [2] of 4.05. The pIC50 [3] was 5.82, the “inhibit growth of MCF-7 cells” value [3] was “effectively inhibit growth of MCF-7 cells at micromolar concentrations” and the pIC50 [4, 7] was 5.62. For the same compound, the pIC50 [4, 8] was 6.10, the pIC50 [5, 9] was 5.62 and the pIC50 [5, 10] was 4.35. For the same compound, the “inhibit O2^- production by PMA-stimulated neutrophils” value (from here on “inhibit O2^- production”) ([5]; HCl salt) was “inhibit O2^- production by PMA-stimulated neutrophils at micromolar concentrations”, the “inhibit O2^- production” value ([5]; compound itself) was “inhibit O2^- production by PMA-stimulated neutrophils at micromolar concentrations” and the pIC50 [6] was 5.54.

With `CCCCCCCCCCCCCCCC(=O)NCCCN(C)C` [Compound 6, N,N-Dimethyl-N'hexadecanoyl-1,3-propanediamine] the pIC50 ([1]; HCl salt) was 4.30, the pIC50 ([1]; free base) was 4.30 and the pIC50 [2] was 3.85. The pIC50 [3] was 5.35, the “inhibit growth of MCF-7 cells” value [3] was “effectively inhibit growth of MCF-7 cells at micromolar concentrations” and the pIC50 [4, 7] was 6.11. The pIC50 [5, 9] was 5.55, the pIC50 [5, 10] was 5.63 and the “inhibit O2^- production” value ([5]; HCl salt) was “inhibit O2^- production by PMA-stimulated neutrophils at micromolar concentrations”. The “inhibit O2^- production” value ([5]; compound itself) was “inhibit O2^- production by PMA-stimulated neutrophils at micromolar concentrations” and the pIC50 [6] was 5.46.

For `CCCCCCCCCCCCCCCC(=O)N(CC)CCCN(C)C` [Compound 7, N,N-Dimethyl-N'-ethyl-N'-hexadecanoyl-1,3-propanediamine], the pIC50 ([1]; HCl salt) was 4.42, the pIC50 ([1]; free base) was 4.30 and the pIC50 [2] was 3.92.

`CCCCCCCCCCCCCCCC(=O)N(CCC)CCCN(C)C` [Compound 8, N,N-Dimethyl-N'-hexadecanoyl-N'-propyl-1,3-propanediamine] was tested, and the pIC50 ([1]; HCl salt) was 4.32, the pIC50 ([1]; free base) was 3.88 and the pIC50 [2] was under 3.66. It also gave a pIC50 [3] of 5.01, a pIC50 [4, 8] of 5.99 and a pIC50 [5, 10] of 5.54.

`CCCCCCCCCCCCCCCC(=O)N(CCCN(C)C)C(C)C` [Compound 9, N,N-Dimethyl-N'-(2-propyl)-N'-hexadecanoyl-1,3-propanediamine] showed a pIC50 ([1]; HCl salt) of 3.89, a pIC50 ([1]; free base) of 3.84 and a pIC50 [2] of 3.76. The pIC50 [3] was 5.29, the pIC50 [4, 8] was 6.85 and the pIC50 [5, 10] was 6.05.

Compound `CCCCCCCCCCCCCCCC(=O)NCCCN(CC)CC` [Compound 10, N,N-Diethyl-N'-hexadecanoyl-1,3-propanediamine] has a pIC50 ([1]; free base) of 3.88, a pIC50 [2] of under 3.66 and a pIC50 [4, 8] of 5.81.

`CCCCCCCCCCCCCCCC(=O)NCCC[N+](C)(C)C` [Compound 15, N-Hexadecanoyl-3-trimethylammoniumpropylamine iodide] gave a pIC50 ([1]; free base) of 4.62, a pIC50 [3] of 5.30 and a pIC50 [4, 8] of 5.48.

`CCCCCCCCCCCCCCCCN(CCCN(C)C)C(C)=O` [Compound 20, N-Acetyl-N-hexadecyl-N',N'-dimethyl-1,3-propanediamine] showed a pIC50 ([1]; HCl salt) of 4.36, a pIC50 ([1]; free base) of 4.16 and a pIC50 [2] of 4.17. The pIC50 [4, 8] was 5.89 and the pIC50 [5, 10] was 5.96.

`CCCCCCCCCCCCCCCC(=O)N(CCC[N+]1(C)CCOCC1)Cc1ccccc1` [Compound 22] was tested, and the pIC50 ([1]; free base) was 4.35, the pIC50 [2] was over 4.36 and the pIC50 [3] was 4.81. The pIC50 [4, 8] was 5.80.

Compound `CCCCCCCCCCCCCCCC(=O)N(C)CCN(C)C` [Compound 25, N,N,N'-Trimethyl-N'-hexadecanoyl-1,3-ethanediamine] has a pIC50 ([1]; HCl salt) of 4.00, a pIC50 ([1]; free base) of 4.04 and a pIC50 [2] of under 3.66.
